In patent US20240140957A1, “BRIDGED COMPOUNDS AS KRAS G12D INHIBITOR AND DEGRADER AND THE USE THEREOF” (BeiGene Switzerland GmbH, priority 2021, published 2024):

Molecular target: T1, KRAS G12D protein in AsPC-1 cells (Homo sapiens, UniProt P01116, G12D)
T1 construct: endogenous in cells; host or cells: AsPC-1
Test: Western Blotting Assay in AsPC-1 cells
Assay type: cell-based
Settings: 48 h compound treatment, concentration 3 uM
Method: AsPC-1 cell line was used in this study. […] 400000 AsPC-1 cells per well in 1 mL culture medium were seed in the 12-well plate for 4 hours. Cells were treated with an appropriate dilution series of compounds. After 48 h compound treatment, medium was aspirated, the cells were washed with PBS, and then 30 μL of 1× protein lysis buffer (Cell Signaling Technology) containing protease inhibitors (Merck) and phosphatase inhibitors (Sigma) was added. The cells were lysed, and after centrifugation, the supernatants were quantified by BCA Protein assay Kit (Thermo Fisher). 4× loading Buffer (Thermo Fisher) was added to equal amounts of total protein from each sample and heated at 95° C. for 5 minutes. […] of cell lysates were loaded onto a 12% NuPAGE Bis-Tris Gel (Thermo Fisher), electro-transferred to NC membranes (Thermo Fisher), The membranes were blocked at least 1 hour with Blocking reagent (LI-COR), and then incubated overnight with anti-KRAS (LSBio, LS-C175665) or pERK (Cell Signaling Technology, 4370L) antibodies and as loading control anti-β-actin (Cell Signaling Technology, 3700S) or anti-GAPDH (Cell Signaling Technology, 97166S) at 4° C. with gentle shaking. The membranes were washed three times with TBST, and incubated at least 1 hour at room temperature with anti-mouse or anti-Rabbit secondary fluorescent antibody (Thermo Fisher, A32729; LI-COR, 926-32213). […]

## Cc1ncsc1-c1ccc([C@H](C)NC(=O)[C@@H]2C[C@@H](O)CN2C(=O)[C@@H](NC(=O)COC2CCN(CC(C)Oc3nc(N4CC5CCC(C4)N5)c4cc(Cl)c(-c5ccc(F)c6sc(N)nc56)c(F)c4n3)CC2)C(C)(C)C)cc1 (stereo partly drawn) [Example E44, (2S,4R)-1-((2S)-2-(2-((1-(2-((7-(2-amino-7-fluorobenzo[d]thiazol-4-yl)-4-(3,8-diazabicyclo[3.2.1]octan-3-yl)-6-chloro-8-fluoroquinazolin-2-yl)oxy)propyl)piperidin-4-yl)oxy)acetamido)-3,3-dimethylbutanoyl)-4-hydroxy-N—((S)-1-(4-(4-methylthiazol-5-yl)phenyl)ethyl)pyrrolidine-2-carboxamide]
  KRAS G12D protein level decrease: 70%
